What follows are compounds tested against C5aR (Homo sapiens (Human), UniProt P21730) (assay: Chemotaxis assay using U937 cells (C5aR mediated migration)). Details: read-out: Mig IC50.
Format: cell-based
In short: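 U937 monocytic cells, pretreated overnight with 0.5 mM cyclic AMP, placed at 100,000 cells in the upper well above 5 μm polycarbonate filters. Lower well held 0.03 nM C5a plus compound in HBSS/1% FBS; after 1.5 h at 37° C migrated cells counted directly or by CyQuant, giving IC50.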

Sequence of C5aR (P21730 whole entry): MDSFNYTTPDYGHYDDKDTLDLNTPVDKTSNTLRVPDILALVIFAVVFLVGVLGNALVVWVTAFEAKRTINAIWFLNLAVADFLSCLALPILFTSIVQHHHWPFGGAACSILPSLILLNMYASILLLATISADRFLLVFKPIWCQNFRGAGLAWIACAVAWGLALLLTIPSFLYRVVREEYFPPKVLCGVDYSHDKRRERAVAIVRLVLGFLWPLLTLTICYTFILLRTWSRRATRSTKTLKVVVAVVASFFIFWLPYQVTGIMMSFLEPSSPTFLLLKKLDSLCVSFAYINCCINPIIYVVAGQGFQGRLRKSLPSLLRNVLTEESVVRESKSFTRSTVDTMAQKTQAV

Compound | IC50 [nM]
Cc1cccc(OCC(C)C)c1-n1nc2c(c1-c1ccc(NC(N)=O)cc1)CN(C(C)c1cccc(C(F)(F)F)c1)CC2 (stereo not drawn) [Example 1.319] | ≤ 5
Cc1cccc(OCC(C)C)c1-n1nc2c(c1-c1ccc(NC(N)=O)c(F)c1)CN(CC1CCCC1)CC2 [Example 1.272] | ≤ 5
Cc1cccc(C)c1-n1nc2c(c1-c1cc(F)c(NC(N)=O)cc1F)CN(c1ncc(Cl)cc1C#N)CC2 [Example 1.102] | ≤ 5
Cc1cccc(OCC(C)C)c1-n1nc2c(c1-c1ccc(NC(N)=O)cc1)CN(C(=O)C1CCCC1)CC2 [Example 1.438] | 50 to 500
Cc1cccc(OCC(C)C)c1-n1nc2c(c1-c1ccc(NC(N)=O)cc1)CN(Cc1c(Cl)cccc1C(F)(F)F)CC2 [Example 1.362] | ≤ 5
Cc1cccc(OCC(C)C)c1-n1nc2c(c1-c1ccc(NC(N)=O)cc1)CN(C(=O)CC(C)(C)C)CC2 [Example 1.435] | 50 to 500
Cc1ccc(C(C)(C)O)nc1N1CCc2nn(-c3c(C)cccc3OCC(C)C)c(-c3ccc(NC(N)=O)cc3)c2C1 [Example 1.383] | 50 to 500
CCc1cccc(CC)c1-n1nc2c(c1-c1cc(F)c(NC(N)=O)cc1F)CN(Cc1ccc(C(C)(C)C)cc1)CC2 [Example 1.054] | ≤ 5
Cc1cccc(OCC(C)C)c1-n1nc2c(c1-c1cc(F)c(NC(N)=O)cc1F)CN(c1ncc(C(F)(F)F)cc1F)CC2 [Example 1.242] | ≤ 5
CCc1cccc(CC)c1-n1nc2c(c1-c1cc(F)c(NC(N)=O)cc1F)CN(CC1CCOCC1)CC2 [Example 1.019] | 5 to 50
CCc1cccc(CC)c1-n1nc2c(c1-c1ccc(NC(N)=O)cc1)CN(Cc1cc(Cl)ccc1Cl)CC2 [Example 1.291] | 5 to 50
Cc1cccc(OCC(C)C)c1-n1nc2c(c1-c1ccc(NC(N)=O)cc1)CN(Cc1cc(Cl)ccc1F)CC2 [Example 1.309] | ≤ 5
Cc1cccc(OCC(C)C)c1-n1nc2c(c1-c1cc(F)c(NC(N)=O)c(F)c1)CN(c1ncc(C(F)(F)F)cc1F)CC2 [Example 1.263] | 50 to 500
Cc1cccc(C)c1-n1nc2c(c1-c1ccc(NC(N)=O)cc1)CN(c1ccccc1C(C)C)CC2 [Example 1.478] | 50 to 500
CCc1cccc(CC)c1-n1nc2c(c1-c1cc(F)c(NC(N)=O)cc1F)CN(Cc1cc(F)ccc1F)CC2 [Example 1.046] | ≤ 5
COc1cccc(C)c1-n1nc2c(c1-c1ccc(NC(C)C)cc1)CN(c1ccccc1C(C)C)CC2 [Example 1.485] | 50 to 500
CCc1cccc(CC)c1-n1nc2c(c1-c1ccc(NC(N)=O)c(F)c1)CN(CC1CCCC1)CC2 [Example 1.243] | ≤ 5
Cc1ccc(C(C)(C)C)cc1N1CCc2nn(-c3c(C)cccc3C)c(-c3ccc(O)cc3)c2C1 [Example 1.452] | 5 to 50
Cc1cccc(OCC(C)C)c1-n1nc2c(c1-c1ccc(NC(N)=O)cc1)CN(Cc1cc(C(F)(F)F)ccc1C(F)(F)F)CC2 [Example 1.335] | ≤ 5
Cc1cccc(C)c1-n1nc2c(c1-c1ccc(C(N)=O)cc1)CN(c1ncc(Cl)cc1Cl)CC2 [Example 1.109] | 50 to 500
Cc1cccc(OCC(C)C)c1-n1nc2c(c1-c1ccc(NC(N)=O)cc1)CN(C(C)c1ccc(C(F)(F)F)cc1)CC2 (stereo not drawn) [Example 1.303] | 5 to 50

Compound | IC50 [nM]
CCc1cccc(CC)c1-n1nc2c(c1-c1cc(F)c(NC(N)=O)cc1F)CN(C(C)(C)c1ccc(OC)cc1)CC2 [Example 1.157] | ≤ 5
COc1cc(NC(N)=O)c(F)cc1-c1c2c(nn1-c1c(C)cccc1C)CCN(c1ccc(Cl)cc1Cl)C2 [Example 1.114] | ≤ 5
CCc1cccc(CC)c1-n1nc2c(c1-c1cc(F)c(NC(N)=O)cc1F)CN(Cc1ccc(OC)cc1C(F)(F)F)CC2 [Example 1.053] | ≤ 5
CCc1cccc(CC)c1-n1nc2c(c1-c1cc(F)c(NC(N)=O)cc1F)CN(Cc1ccc(C(F)(F)F)cc1)CC2 [Example 1.065] | ≤ 5
CC(C)COc1cccc(F)c1-n1nc2c(c1-c1cc(F)c(NC(N)=O)cc1F)CN(C(C)(C)c1ccccc1)CC2 [Example 1.198] | ≤ 5
CCc1cccc(CC)c1-n1nc2c(c1-c1cc(F)c(NC(N)=O)cc1F)CN(CC(C)(C)C(F)(F)F)CC2 [Example 1.001] | ≤ 5
Cc1ccccc1CN1CCc2nn(-c3c(C)cccc3OCC(C)C)c(-c3ccc(NC(N)=O)cc3)c2C1 [Example 1.371] | 5 to 50
CC(C)COc1cccnc1-n1nc2c(c1-c1cc(F)c(NC(N)=O)cc1F)CN(c1ncc(Cl)cc1Cl)CC2 [Example 1.171] | 5 to 50
Cc1cccc(OCC(C)C)c1-n1nc2c(c1-c1ccc(NC(N)=O)cc1)CN(Cc1ccc(F)cc1F)CC2 [Example 1.316] | ≤ 5
CCc1cccc(CC)c1-n1nc2c(c1-c1cc(F)c(NC(N)=O)cc1F)CN(Cc1ccc(Cl)cc1C(F)(F)F)CC2 [Example 1.076] | ≤ 5
Cc1cccc(OCC(C)C)c1-n1nc2c(c1-c1cc(F)c(NC(N)=O)cc1F)CN(c1ncc(C(C)C)cc1F)CC2 [Example 1.202] | ≤ 5
Cc1ccc(C(C)(C)C)cc1N1CCc2nn(-c3ccccc3C(C)C)c(-c3ccc(NC(N)=O)cc3)c2C1 [Example 1.403] | 50 to 500
COc1cccc(C)c1-n1nc2c(c1-c1ccc(NC(N)=O)cc1)CN(c1ccccc1C)CC2 [Example 1.484] | 50 to 500
CCc1cccc(CC)c1-n1nc2c(c1-c1cc(F)c(NC(N)=O)cc1F)CN(Cc1ccccc1)CC2 [Example 1.051] | ≤ 5
Cc1cccc(OCC(C)C)c1-n1nc2c(c1-c1ccc(NC(N)=O)cc1)CN(C1CCCCC1)CC2 [Example 1.406] | 50 to 500
Cc1cccc(OCC(C)C)c1-n1nc2c(c1-c1ccc(NC(N)=O)c(F)c1)CN(C(=O)C1CCCC1)CC2 [Example 1.238] | 5 to 50
CC(C)COc1ccccc1-n1nc2c(c1-c1cc(F)c(NC(N)=O)cc1F)CN(C(C)(C)c1ccccc1)CC2 [Example 1.199] | ≤ 5
Cc1cccc(OCC(C)C)c1-n1nc2c(c1-c1ccc(NC(N)=O)c(F)c1)CN(CC(C)C)CC2 [Example 1.273] | 5 to 50
CCc1cccc(CC)c1-n1nc2c(c1-c1ccc(NC(N)=O)cc1)CN(C(C)c1ccccc1C(F)(F)F)CC2 (stereo not drawn) [Example 1.295] | 5 to 50
Cc1cccc(OCC(C)C)c1-n1nc2c(c1-c1ccc(NC(N)=O)cc1)CN(c1ncccc1C(F)(F)F)CC2 [Example 1.271] | 5 to 50

Other lines, results leading:

IC50 [nM] | Compound
5 to 50 | CCc1cccc(CC)c1-n1nc2c(c1-c1ccc(NC(N)=O)c(F)c1)CN(C(CC)CC)CC2 [Example 1.219]
5 to 50 | CCc1cccc(CC)c1-n1nc2c(c1-c1cc(F)c(NC(N)=O)cc1F)CN(Cc1cnc(C)cc1C)CC2 [Example 1.026]
≤ 5 | CCc1cccc(CC)c1-n1nc2c(c1-c1cc(F)c(NC(N)=O)cc1F)CN(C(C)c1cccc(F)c1)CC2 (stereo not drawn) [Example 1.181]
> 500 | Cc1cccc(OCC(C)C)c1-n1nc2c(c1-c1ccc(C(N)=O)cc1)CN(C(=O)OC(C)(C)C)CC2 [Example 1.411]
≤ 5 | Cc1cc(N2CCc3nn(-c4c(C)cccc4OCC(C)C)c(-c4cc(F)c(NC(N)=O)cc4F)c3C2)ncc1Cl [Example 1.177]
5 to 50 | Cc1cccc(OCC(C)C)c1-n1nc2c(c1-c1ccc(NC(N)=O)cc1)CN(CC1(C(F)(F)F)CC1)CC2 [Example 1.372]
5 to 50 | CCc1cccc(CC)c1-n1nc2c(c1-c1cc(F)c(NC(N)=O)cc1F)CN(C(C)(C)C)CC2 [Example 1.204]
5 to 50 | CCc1cccc(CC)c1-n1nc2c(c1-c1ccc(NC(N)=O)cc1)CN(c1ncc(C(F)(F)F)cc1F)CC2 [Example 1.301]
50 to 500 | CCN1CCc2nn(-c3c(C)cccc3OCC(C)C)c(-c3ccc(NC(N)=O)c(F)c3)c2C1 [Example 1.265]
≤ 5 | CCc1cccc(CC)c1-n1nc2c(c1-c1cc(F)c(NC=O)cc1F)CN(Cc1ccc(C(F)(F)F)cc1C(F)(F)F)CC2 [Example 1.003]
≤ 5 | CCc1cccc(CC)c1-n1nc2c(c1-c1cc(F)c(NC(N)=O)cc1F)CN(Cc1ccc(Cl)cc1C(F)(F)F)C(C)(C)C2 [Example 1.052]
50 to 500 | Cc1cccc(OCC(C)C)c1-n1nc2c(c1-c1ccc(NC(N)=O)cc1)CN(S(=O)(=O)c1ccccc1C(F)(F)F)CC2 [Example 1.298]
5 to 50 | CCc1cccc(CC)c1-n1nc2c(c1-c1cc(F)c(NC(N)=O)cc1F)CN(C(=O)C(C)C)CC2 [Example 1.030]
≤ 5 | Cc1cccc(OCC(C)C)c1-n1nc2c(c1-c1ccc(NC(N)=O)cc1)CN(Cc1c(C(F)(F)F)ccc(Cl)c1Cl)CC2 [Example 1.333]
≤ 5 | CC(C)COc1cccc(F)c1-n1nc2c(c1-c1cc(F)c(NC(N)=O)cc1F)CN(c1ncc(Cl)cc1Cl)CC2 [Example 1.188]
50 to 500 | Cc1cccc(OCC(C)C)c1-n1nc2c(c1-c1ccc(NC(N)=O)cc1)CN(C1CCCC1)CC2 [Example 1.410]
≤ 5 | CC[C@H](c1ccccc1)N1CCc2nn(-c3c(C)cccc3C)c(-c3cc(F)c(NC(N)=O)cc3F)c2C1 [Example 1.100]
> 500 | Cc1cccc(C)c1-n1nc2c(c1-c1cc(F)c(NC(N)=O)cc1F)CN(C(C)(C)CO)CC2 [Example 1.088]
5 to 50 | CCCCN1CCc2nn(-c3c(C)cccc3OCC(C)C)c(-c3ccc(NC(N)=O)c(F)c3)c2C1 [Example 1.231]
5 to 50 | CCc1cccc(CC)c1-n1nc2c(c1-c1ccc(NC(N)=O)cc1)CN(C(CC)c1ccccc1C(F)(F)F)CC2 (stereo not drawn) [Example 1.286]
≤ 5 | CCc1cccc(CC)c1-n1nc2c(c1-c1cc(F)c(NC(N)=O)cc1F)CN(C(C)(C)c1ccccc1F)CC2 [Example 1.186]
50 to 500 | CCc1cccc(C)c1-n1nc2c(c1-c1ccc(NC(N)=O)cc1)CN(C(=O)OC(C)(C)C)CC2 [Example 1.399]
≤ 5 | Cc1cc(NC(N)=O)c(F)cc1-c1c2c(nn1-c1c(C)cccc1C)CCN(c1ccc(C(F)(F)F)cc1F)C2 [Example 1.117]
5 to 50 | Cc1cccc(OCC(C)C)c1-n1nc2c(c1-c1ccc(NC(N)=O)cc1)CN(C(=O)OC(C)(C)C)CC2 [Example 1.439]
5 to 50 | Cc1cccc(OCC(C)C)c1-n1nc2c(c1-c1ccc(NC(N)=O)cc1)CN(Cc1cccc(C(F)(F)F)c1)CC2 [Example 1.338]

Reference: patent US11478460B2, “Diaryl substituted 6,5-fused ring compounds as C5aR inhibitors” (CHEMOCENTRYX, INC., priority 2017, dated 2022)
